In brackets after ≈: the same amount, converted by molar mass. Like-named read-outs stand apart in the source and are kept apart here.
Assays:
[1] = tested on: Klebsiella pneumoniae ATCC 700603; experiment: MIC broth microdilution (Example 2); conditions: Klebsiella pneumoniae ATCC 700603 producing SHV-18
[2] = tested on: Klebsiella pneumoniae TEM-1 hyperproduced; assay type: cell-based
Procedure: (§1) The MIC experiments were performed in duplicate in 96-well microtiter plates using CAMHB. […] The bacterial suspension with final inoculum 10^5 CFU/mL was transferred to the test medium containing the antibacterial substances. In each well of a 96-well microtiter plate was combined 50 μL of bacterial inoculum, 50 μL of antibiotic dilutions (or media for determination of the MIC of the antibiotic in the absence of test compound). Each plate included 4 wells with no bacterial inoculum (negative control) and 4 wells with no test compound and no antibiotic (positive control). The plates were incubated at 35° C. for 24 h. Purity check and colony counts on each inoculum suspension was performed to ensure that the final inoculum concentration routinely obtained closely approximates 5×10^5 CFU/mL. In addition the assay is routinely monitored by testing standard antibiotics and ensuring that MIC values are within the recommended ranges for the respective strains.
(§2) This test permits comparisons to be made between bacterial growth in the presence of antibiotic alone and bacterial growth in the presence of both an antibiotic and a novel (test) compound.

[3] = tested on: Klebsiella oxytoca ATCC 51983; experiment: MIC broth microdilution (Example 2); conditions: ATCC51983
[4] = tested on: Klebsiella pneumoniae TEM-31; experiment: MIC, characterised β-lactamase producing strain (Example 5, Tables 5-7); assay type: cell-based
Procedure: as §1, §2

Escherichia coli TEM-5 = experiment: as above; assay type: cell-based
Procedure: as §1, §2

Escherichia coli TEM-7 = experiment: as above; assay type: cell-based
Procedure: as §1, §2

[5] = tested on: Pseudomonas aeruginosa OXA-10; experiment: as above; assay type: cell-based
Procedure: as §1, §2

Proteus mirabilis TEM-52 = experiment: as above; assay type: cell-based
Procedure: as §1, §2

Escherichia coli SHV-2 = experiment: as above; assay type: cell-based
Procedure: as §1, §2

[6] = tested on: Klebsiella pneumoniae LAT-1; experiment: as above; assay type: cell-based
Procedure: as §1, §2

Escherichia coli TEM-50 = experiment: as above; assay type: cell-based
Procedure: as §1, §2

[7] = tested on: Pseudomonas aeruginosa PSE-1; experiment: as above; assay type: cell-based
Procedure: as §1, §2

Escherichia coli TEM-6 = experiment: as above; assay type: cell-based
Procedure: as §1, §2

[8] = tested on: Pseudomonas aeruginosa LCR-1; experiment: as above; assay type: cell-based
Procedure: as §1, §2

Escherichia coli TEM-20 = experiment: as above; assay type: cell-based
Procedure: as §1, §2

Escherichia coli TEM-32 = experiment: as above; assay type: cell-based
Procedure: (§3) The MIC experiments were performed in duplicate in 96-well microtiter plates using CAMHB. Serial twofold dilutions of each antibiotic either alone or in combination with constant concentration ratio of a β-lactamase inhibitor (2:1) were prepared in CAMHB. The bacterial suspension with final inoculum 10^5 CFU/mL was transferred to the test medium containing the antibacterial substances. In each well of a 96-well microtiter plate was combined 50 μL of bacterial inoculum, 50 μL of antibiotic dilutions (or media for determination of the MIC of the antibiotic in the absence of test compound). Each plate included 4 wells with no bacterial inoculum (negative control) and 4 wells with no test compound and no antibiotic (positive control). The plates were incubated at 35° C. for 24 h. Purity check and colony counts on each inoculum suspension was performed to ensure that the final inoculum concentration routinely obtained closely approximates 5×10^5 CFU/mL. In addition the assay is routinely monitored by testing standard antibiotics and ensuring that MIC values are within the recommended ranges for the respective strains.
as §2

Escherichia coli OXA-4 = experiment: as above; assay type: cell-based
Procedure: as §3, §2

[9] = tested on: Aeromonas hydrophila AER-1; experiment: as above; assay type: cell-based
Procedure: as §3, §2

Escherichia coli TEM-34 = experiment: as above; assay type: cell-based
Procedure: as §3, §2

[10] = tested on: Klebsiella pneumoniae TEM-1, SHV-5; experiment: as above; assay type: cell-based
Procedure: as §3, §2

[11] = tested on: Klebsiella pneumoniae TEM-30; experiment: as above; assay type: cell-based
Procedure: as §3, §2

[12] = tested on: Pseudomonas aeruginosa NPS-1; experiment: as above; assay type: cell-based
Procedure: as §3, §2

Salmonella spp. DHA-1 = experiment: as above; assay type: cell-based
Procedure: as §3, §2

E. coli SHV-5 = experiment: Synergy MIC, inhibitor at 4 μg/mL (Example 4); assay type: cell-based; conditions: SHV-5, class A, inhibitor constant 4 μg/mL

**Q.** Which “susceptibility of the strain to the antibiotic” value [1] does the source give for CC(C)(O/N=C(\C(=O)N[C@@H]1C(=O)N2C(C(=O)[O-])=C(C[n+]3ccccc3)CS[C@H]12)c1csc(N)n1)C(=O)O [ceftazidime] here?
**A.** resistant

**Q.** And the MIC ([2]; Table 7, combination at constant concentration ratio (2:1))?
**A.** 0.25 µg/mL

**Q.** And the MIC [3]?
**A.** 32 to 64 µg/mL (≈ 58.5 to 117 µM)

**Q.** What about the MIC ([4]; Table 7, Klebsiella pneumoniae TEM-31, combination at constant concentration ratio (2:1)) of the same molecule?
**A.** 0.25 µg/mL

**Q.** And the MIC (Escherichia coli TEM-5; Table 7, Escherichia coli TEM-5, combination at constant concentration ratio (2:1))?
**A.** 4 µg/mL

**Q.** What about the MIC (Escherichia coli TEM-7; Table 7, Escherichia coli TEM-7, combination at constant concentration ratio (2:1)) of the same molecule?
**A.** 32 µg/mL

**Q.** What about the MIC ([5]; Table 7, Pseudomonas aeruginosa OXA-10, combination at constant concentration ratio (2:1)) of the same molecule?
**A.** 4 µg/mL

**Q.** What about the MIC (Proteus mirabilis TEM-52; Table 7, Proteus mirabilis TEM-52, combination at constant concentration ratio (2:1)) of the same molecule?
**A.** 4 µg/mL

**Q.** And the MIC (Escherichia coli SHV-2; Table 7, Escherichia coli SHV-2, combination at constant concentration ratio (2:1))?
**A.** 2 µg/mL

**Q.** And the MIC ([6]; Table 7, Klebsiella pneumoniae LAT-1, combination at constant concentration ratio (2:1))?
**A.** 8 µg/mL

**Q.** And the MIC (Escherichia coli TEM-50; Table 7, Escherichia coli TEM-50, combination at constant concentration ratio (2:1))?
**A.** 8 µg/mL

**Q.** What about the MIC ([7]; Table 7, Pseudomonas aeruginosa PSE-1, combination at constant concentration ratio (2:1)) of the same molecule?
**A.** 2 µg/mL

**Q.** What about the MIC (Escherichia coli TEM-6; Table 7, Escherichia coli TEM-6, combination at constant concentration ratio (2:1)) of the same molecule?
**A.** ≧128 μg/mL

**Q.** What about the MIC ([8]; Table 7, Pseudomonas aeruginosa LCR-1, combination at constant concentration ratio (2:1)) of the same molecule?
**A.** 4 µg/mL

**Q.** And the MIC (Escherichia coli TEM-20; Table 7, Escherichia coli TEM-20, combination at constant concentration ratio (2:1))?
**A.** 2 µg/mL

**Q.** What about the MIC (Escherichia coli TEM-32; Table 7, Escherichia coli TEM-32, combination at constant concentration ratio (2:1)) of the same molecule?
**A.** 0.25 µg/mL

**Q.** And the MIC (Escherichia coli OXA-4; Table 7, Escherichia coli OXA-4, combination at constant concentration ratio (2:1))?
**A.** 0.5 µg/mL

**Q.** And the MIC ([9]; Table 7, Aeromonas hydrophila AER-1, combination at constant concentration ratio (2:1))?
**A.** 0.25 µg/mL

**Q.** Which results are given for CO/N=C(\C(=O)N[C@@H]1C(=O)N2C(C(=O)O)=C(COC(C)=O)CS[C@H]12)c1csc(N)n1 [cefotaxime]?
**A.** susceptibility of the strain to the antibiotic [1]: susceptible; MIC ([2]; Table 6, LK-157 at constant 4 μg/mL in combination): 0.063 µg/mL; MIC [3]: 2 to 8 µg/mL (≈ 4.39 to 17.6 µM); MIC ([4]; Table 6, Klebsiella pneumoniae TEM-31, LK-157 at constant 4 μg/mL in combination): 0.063 µg/mL; MIC (Escherichia coli TEM-5; Table 6, Escherichia coli TEM-5, LK-157 at constant 4 μg/mL in combination): 0.063 µg/mL; MIC (Escherichia coli TEM-7; Table 6, Escherichia coli TEM-7, LK-157 at constant 4 μg/mL in combination): 0.25 µg/mL; MIC ([5]; Table 6, Pseudomonas aeruginosa OXA-10, LK-157 at constant 4 μg/mL in combination): 64 µg/mL; MIC (Proteus mirabilis TEM-52; Table 6, Proteus mirabilis TEM-52, LK-157 at constant 4 μg/mL in combination): 16 µg/mL; MIC (Escherichia coli SHV-2; Table 6, Escherichia coli SHV-2, LK-157 at constant 4 μg/mL in combination): 4 µg/mL; MIC ([6]; Table 6, Klebsiella pneumoniae LAT-1, LK-157 at constant 4 μg/mL in combination): 4 µg/mL; MIC (Escherichia coli TEM-50; Table 6, Escherichia coli TEM-50, LK-157 at constant 4 μg/mL in combination): 8 µg/mL; MIC ([7]; Table 6, Pseudomonas aeruginosa PSE-1, LK-157 at constant 4 μg/mL in combination): 16 µg/mL; MIC (Escherichia coli TEM-6; Table 6, Escherichia coli TEM-6, LK-157 at constant 4 μg/mL in combination): 0.5 µg/mL; MIC ([8]; Table 6, Pseudomonas aeruginosa LCR-1, LK-157 at constant 4 μg/mL in combination): 64 µg/mL; MIC (Escherichia coli TEM-20; Table 6, Escherichia coli TEM-20, LK-157 at constant 4 μg/mL in combination): 2 µg/mL; MIC (Escherichia coli TEM-34; Table 6, Escherichia coli TEM-34, LK-157 at constant 4 μg/mL in combination): 0.031 µg/mL; MIC ([10]; Table 6, Klebsiella pneumoniae TEM-1, SHV-5, LK-157 at constant 4 μg/mL in combination): 32 µg/mL; MIC ([11]; Table 6, Klebsiella pneumoniae TEM-30, LK-157 at constant 4 μg/mL in combination): 0.031 µg/mL; MIC ([12]; Table 6, Pseudomonas aeruginosa NPS-1, LK-157 at constant 4 μg/mL in combination): 16 µg/mL; MIC (Salmonella spp. DHA-1; Table 6, Salmonella spp. DHA-1, LK-157 at constant 4 μg/mL in combination): 32 µg/mL; MIC (E. coli SHV-5): > 25.6 µg/mL

**Q.** For CO/N=C(\C(=O)N[C@@H]1C(=O)N2C(C(=O)[O-])=C(C[N+]3(C)CCCC3)CS[C@H]12)c1csc(N)n1 [cefepime], which MIC ([4]; Klebsiella pneumoniae TEM-31, functional group 2br, LK-157 in combination constant 4 μg/mL) is on record?
**A.** 0.125 µg/mL

**Q.** What about the MIC (Escherichia coli TEM-5; Escherichia coli TEM-5, functional group 2be, LK-157 in combination constant 4 μg/mL) of the same molecule?
**A.** 0.5 µg/mL

**Q.** And the MIC (Escherichia coli TEM-7; Escherichia coli TEM-7, functional group 2be, LK-157 in combination constant 4 μg/mL)?
**A.** 16 µg/mL

**Q.** And the MIC ([5]; Pseudomonas aeruginosa OXA-10, functional group 2d, LK-157 in combination constant 4 μg/mL)?
**A.** 64 µg/mL

**Q.** What about the MIC (Proteus mirabilis TEM-52; Proteus mirabilis TEM-52, functional group 2be, LK-157 in combination constant 4 μg/mL) of the same molecule?
**A.** 16 µg/mL

**Q.** What about the MIC (Escherichia coli SHV-2; Escherichia coli SHV-2, functional group 2be, LK-157 in combination constant 4 μg/mL) of the same molecule?
**A.** 2 µg/mL

**Q.** And the MIC ([6]; Klebsiella pneumoniae LAT-1, functional group 1, LK-157 in combination constant 4 μg/mL)?
**A.** 0.125 µg/mL

**Q.** And the MIC (Escherichia coli TEM-50; Escherichia coli TEM-50, functional group 2be, LK-157 in combination constant 4 μg/mL)?
**A.** 32 µg/mL

**Q.** What about the MIC ([7]; Pseudomonas aeruginosa PSE-1, functional group 2c, LK-157 in combination constant 4 μg/mL) of the same molecule?
**A.** 32 µg/mL

**Q.** And the MIC (Escherichia coli TEM-6; Escherichia coli TEM-6, functional group 2be, LK-157 in combination constant 4 μg/mL)?
**A.** 4 µg/mL

**Q.** And the MIC ([8]; Pseudomonas aeruginosa LCR-1, functional group 2d, LK-157 in combination constant 4 μg/mL)?
**A.** 128 µg/mL

**Q.** And the MIC (Escherichia coli TEM-20; Escherichia coli TEM-20, functional group 2be, LK-157 in combination constant 4 μg/mL)?
**A.** 4 µg/mL

**Q.** And the MIC (Escherichia coli TEM-34; Escherichia coli TEM-34, functional group 2br, LK-157 in combination constant 4 μg/mL)?
**A.** 0.063 µg/mL

**Q.** What about the MIC ([10]; Klebsiella pneumoniae TEM-1, SHV-5, functional group 2b, 2e, LK-157 in combination constant 4 μg/mL) of the same molecule?
**A.** 16 µg/mL

**Q.** What about the MIC (Escherichia coli TEM-32; Escherichia coli TEM-32, functional group 2br, LK-157 in combination constant 4 μg/mL) of the same molecule?
**A.** 0.125 µg/mL

**Q.** And the MIC ([11]; Klebsiella pneumoniae TEM-30, functional group 2br, LK-157 in combination constant 4 μg/mL)?
**A.** 0.125 µg/mL

**Q.** And the MIC ([12]; Pseudomonas aeruginosa NPS-1, functional group 2a, LK-157 in combination constant 4 μg/mL)?
**A.** 8 µg/mL

**Q.** And the MIC (Salmonella spp. DHA-1; Salmonella spp. DHA-1, functional group 1, LK-157 in combination constant 4 μg/mL)?
**A.** 1 µg/mL

**Q.** And the MIC (Escherichia coli OXA-4; Escherichia coli OXA-4, functional group 2d, LK-157 in combination constant 4 μg/mL)?
**A.** 0.5 µg/mL

**Q.** What about the MIC ([9]; Aeromonas hydrophila AER-1, functional group 2c, LK-157 in combination constant 4 μg/mL) of the same molecule?
**A.** 0.5 µg/mL

**Q.** And the MIC (E. coli SHV-5)?
**A.** 25.6 µg/mL
